Values joined by “and” are separate entries in the source; they are usually repeats but may differ in a detail not shown here. Equal values may be shown once. Toxic doses and inconclusive results are not listed.

In this test the test system is P388 leukemia ip, CD2F1 mice, survival T/C. Put plainly: NCI In Vivo Anticancer Drug Screen. Data for tumor model P388 Leukemia (intraperitoneal) in CD2F1 (CDF1) mice. Conditions: endpoint: median survival time, higher = longer survival. In short, it runs like this: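 Mice carrying the transplanted tumor received test compound or vehicle. Survival was recorded in each group, and the value is the treated-group measurement divided by that of the vehicle-treated control group.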

The mark [1] stands for this setting: dose: 100.0 mg/kg/injection, schedule: Q04DX003 (ip), vehicle: saline with Tween-80.
The mark [2] stands for this setting: dose: 200.0 mg/kg/injection, schedule: Q04DX003 (ip), vehicle: saline with Tween-80.
[3] abbreviates: dose: 400.0 mg/kg/injection, schedule: Q04DX003 (ip), vehicle: saline with Tween-80.
The mark [4] stands for this setting: dose: 100.0 mg/kg/injection, schedule: Q01DX001 (ip), vehicle: Klucel (hydroxypropylcellulose) (HPC).
Where [5] appears, read: dose: 200.0 mg/kg/injection, schedule: Q01DX001 (ip), vehicle: Klucel (hydroxypropylcellulose) (HPC).
Where [6] appears, read: dose: 400.0 mg/kg/injection, schedule: Q01DX001 (ip), vehicle: Klucel (hydroxypropylcellulose) (HPC).
[7] abbreviates: dose: 50.0 mg/kg/injection, schedule: Q01DX009 (ip), vehicle: Klucel (hydroxypropylcellulose) (HPC).
Where [8] appears, read: dose: 100.0 mg/kg/injection, schedule: Q01DX009 (ip), vehicle: Klucel (hydroxypropylcellulose) (HPC).
The mark [9] stands for this setting: dose: 200.0 mg/kg/injection, schedule: Q01DX009 (ip), vehicle: Klucel (hydroxypropylcellulose) (HPC).
The mark [10] stands for this setting: dose: 12.5 mg/kg/injection, schedule: Q01DX009 (ip), vehicle: Klucel (hydroxypropylcellulose) (HPC).
The mark [11] stands for this setting: dose: 100.0 mg/kg/injection, schedule: Q04DX002 (ip), vehicle: saline.
Where [12] appears, read: dose: 60.0 mg/kg/injection, schedule: Q01DX005 (ip), vehicle: Klucel (hydroxypropylcellulose) (HPC).
Setting [13] is: dose: 120.0 mg/kg/injection, schedule: Q01DX005 (ip), vehicle: Klucel (hydroxypropylcellulose) (HPC).
Setting [14] is: dose: 240.0 mg/kg/injection, schedule: Q01DX005 (ip), vehicle: Klucel (hydroxypropylcellulose) (HPC).
[15] abbreviates: dose: 25.0 mg/kg/injection, schedule: Q01DX009 (ip), vehicle: suspension in saline.
[16] abbreviates: dose: 50.0 mg/kg/injection, schedule: Q01DX009 (ip), vehicle: suspension in saline.

Consider `CCN(CC)CCNc1c(OC)c(OC)cc2nccnc12`, for which the T/C (dose: 25.0 mg/kg/injection, schedule: Q01DX005 (ip), vehicle: suspension in saline) is 98 % of control; the T/C (dose: 50.0 mg/kg/injection, schedule: Q01DX005 (ip), vehicle: suspension in saline) was 98 % of control; the T/C (dose: 100.0 mg/kg/injection, schedule: Q01DX005 (ip), vehicle: suspension in saline) was 98 % of control.

Regarding `CC1(C)SC(C(NC(=O)Cc2ccccc2)C(=O)O)NC1C(=O)O` (stereo unspecified), the T/C was 90 % of control under setting [1], 100 % of control under setting [2] and 104 % of control under setting [3].

As for `NC(=S)c1ccc(N=Cc2ccccn2)cc1`, the T/C was 100 % of control (dose: 25.0 mg/kg/injection, schedule: Q01DX001 (ip), vehicle: Klucel (hydroxypropylcellulose) (HPC)); 100 % of control (dose: 50.0 mg/kg/injection, schedule: Q01DX001 (ip), vehicle: Klucel (hydroxypropylcellulose) (HPC)); 103 % of control and 106 % of control under setting [4]; 102 % of control under setting [5]; 105 % of control under setting [6].

Consider `O=C1OCCOCCOCCOCCOCCOC(=O)C1c1ccccc1`, for which the T/C is, setting by setting: under setting [7], 102 % of control; under setting [8], 101 % of control; under setting [9], 100 % of control.

With `[Tl][S][Tl]`, the T/C is, setting by setting: (dose: 6.25 mg/kg/injection, schedule: Q01DX009 (ip), vehicle: Klucel (hydroxypropylcellulose) (HPC)) 102 % of control; under setting [10], 100 % of control.

As for `Nc1cccc(=O)[nH]1`, the T/C was 95 % of control (dose: 100.0 mg/kg/injection, schedule: Q01DX009 (ip), vehicle: saline); 109 % of control (dose: 200.0 mg/kg/injection, schedule: Q01DX009 (ip), vehicle: saline); 113 % of control and 123 % of control (dose: 400.0 mg/kg/injection, schedule: Q01DX009 (ip), vehicle: saline).

With `O=CC(NC(=O)CCCc1ccc(N(CCCl)CCCl)cc1)C(O)C(O)C(O)CO` (stereo unspecified), the T/C runs as follows: under setting [10], 204 % of control and 215 % of control; (dose: 25.0 mg/kg/injection, schedule: Q01DX009 (ip), vehicle: Klucel (hydroxypropylcellulose) (HPC)) 211 % of control and 227 % of control; under setting [7], 105 % of control and 86 % of control and 89 % of control.

Regarding `COC(=O)CC(O)CCCCCCCCCCCCC(C)C` (stereo unspecified), the T/C (dose: 8.75 mg/kg/injection, schedule: Q01DX005 (ip), vehicle: Klucel + Tween-80) was 92 % of control; the T/C (dose: 17.5 mg/kg/injection, schedule: Q01DX005 (ip), vehicle: Klucel + Tween-80) is 100 % of control; the T/C (dose: 35.0 mg/kg/injection, schedule: Q01DX005 (ip), vehicle: Klucel + Tween-80) was 97 % of control.

As to `O=C1CSC(=S)N1/N=C/c1ccccc1`, the T/C is 100 % of control (dose: 25.0 mg/kg/injection, schedule: Q04DX002 (ip), vehicle: saline); 105 % of control (dose: 50.0 mg/kg/injection, schedule: Q04DX002 (ip), vehicle: saline); 98 % of control under setting [11].

For the compound `CC(=O)N1CC(=O)NC1=S`, the T/C (dose: 50.0 mg/kg/injection, schedule: Q01DX009 (ip), vehicle: saline with Tween-80) was 106 % of control; the T/C (dose: 100.0 mg/kg/injection, schedule: Q01DX009 (ip), vehicle: saline with Tween-80) was 97 % of control; the T/C (dose: 200.0 mg/kg/injection, schedule: Q01DX009 (ip), vehicle: saline with Tween-80) is 103 % of control and 95 % of control; the T/C (dose: 400.0 mg/kg/injection, schedule: Q01DX009 (ip), vehicle: saline with Tween-80) is 104 % of control.

On to `CCOC(=O)CCC[n+]1cccc(C#N)c1`, for which the T/C is 101 % of control (dose: 31.25 mg/kg/injection, schedule: Q01DX005 (ip), vehicle: Klucel (hydroxypropylcellulose) (HPC)); 103 % of control (dose: 62.5 mg/kg/injection, schedule: Q01DX005 (ip), vehicle: Klucel (hydroxypropylcellulose) (HPC)); 96 % of control (dose: 125.0 mg/kg/injection, schedule: Q01DX005 (ip), vehicle: Klucel (hydroxypropylcellulose) (HPC)).

`C=CC1O[C@H](C)C[C@H](C)O1` (stereo partly specified): the T/C (dose: 60.0 mg/kg/injection, schedule: Q01DX005 (ip), vehicle: saline) is 109 % of control; the T/C (dose: 120.0 mg/kg/injection, schedule: Q01DX005 (ip), vehicle: saline) is 100 % of control; the T/C (dose: 240.0 mg/kg/injection, schedule: Q01DX005 (ip), vehicle: saline) is 104 % of control.

Turning to `CC(=O)Oc1ccc2[nH]c(C)cc2c1`, the T/C (dose: 100.0 mg/kg/injection, schedule: Q01DX001 (ip), vehicle: saline with Tween-80) is 100 % of control; the T/C (dose: 200.0 mg/kg/injection, schedule: Q01DX001 (ip), vehicle: saline with Tween-80) is 98 % of control; the T/C (dose: 400.0 mg/kg/injection, schedule: Q01DX001 (ip), vehicle: saline with Tween-80) is 93 % of control; the T/C (dose: 800.0 mg/kg/injection, schedule: Q01DX001 (ip), vehicle: saline with Tween-80) was 103 % of control.

On to `S=c1[nH]ccn1-c1ccccc1Cl`, for which the T/C is, setting by setting: under setting [12], 101 % of control; under setting [13], 106 % of control; under setting [14], 109 % of control.

Consider `CC(C)(C)C[C](C)(c1ccccc1)[Sn]([CH3])([CH3])[CH3]` (stereo unspecified), for which the T/C under setting [7] was 94 % of control, the T/C under setting [8] is 102 % of control and the T/C under setting [9] was 102 % of control.

As for `CC(C)C(=O)CC(=O)CCC(=O)Nc1cccc(Cl)c1`, the T/C (dose: 60.0 mg/kg/injection, schedule: Q01DX005 (ip), vehicle: saline with Tween-80) was 105 % of control; the T/C (dose: 120.0 mg/kg/injection, schedule: Q01DX005 (ip), vehicle: saline with Tween-80) is 102 % of control; the T/C (dose: 240.0 mg/kg/injection, schedule: Q01DX005 (ip), vehicle: saline with Tween-80) was 107 % of control.

`CC/C(=N/N(C)C)C(=O)OC`: the T/C by setting is: under setting [11], 95 % of control; (dose: 200.0 mg/kg/injection, schedule: Q04DX002 (ip), vehicle: saline) 100 % of control; (dose: 400.0 mg/kg/injection, schedule: Q04DX002 (ip), vehicle: saline) 98 % of control.

Turning to `CCN(CCN1C(=O)C2CCCCC2C1=O)c1ccc(N=O)c(C)c1` (stereo unspecified), the T/C reads like this: under setting [1], 106 % of control; under setting [2], 109 % of control; under setting [3], 112 % of control.

As for `CC(=O)N1C(=O)Cc2ccccc21`, the T/C is, setting by setting: under setting [4], 94 % of control; under setting [5], 90 % of control; under setting [6], 91 % of control.

With `Brc1ccc2c(ccc3c2nnc2ncnn23)c1`, the T/C under setting [12] is 102 % of control, the T/C under setting [13] was 93 % of control and the T/C under setting [14] was 86 % of control.

On to `O=c1c(F)cn(C(c2ccccc2)c2ccccc2)c(=O)n1C(c1ccccc1)c1ccccc1`, for which the T/C reads like this: (dose: 12.5 mg/kg/injection, schedule: Q01DX009 (ip), vehicle: suspension in saline) 101 % of control; (dose: 18.75 mg/kg/injection, schedule: Q01DX009 (ip), vehicle: suspension in saline) 115 % of control; under setting [15], 106 % of control; (dose: 37.5 mg/kg/injection, schedule: Q01DX009 (ip), vehicle: suspension in saline) 97 % of control; under setting [16], 100 % of control; (dose: 75.0 mg/kg/injection, schedule: Q01DX009 (ip), vehicle: suspension in saline) 101 % of control and 115 % of control. The T/C (dose: 150.0 mg/kg/injection, schedule: Q01DX009 (ip), vehicle: suspension in saline) is 97 % of control.

`CC1(Cl)C(=O)OC2CCC(O)C(O)C21` (stereo unspecified): the T/C was 101 % of control (dose: 100.0 mg/kg/injection, schedule: Q04DX003 (ip), vehicle: Klucel (hydroxypropylcellulose) (HPC)); 102 % of control (dose: 200.0 mg/kg/injection, schedule: Q04DX003 (ip), vehicle: Klucel (hydroxypropylcellulose) (HPC)); 106 % of control (dose: 400.0 mg/kg/injection, schedule: Q04DX003 (ip), vehicle: Klucel (hydroxypropylcellulose) (HPC)).

For the compound `N#CC(NCc1ccccc1)C(O)c1ccccc1` (stereo unspecified), the T/C is 105 % of control under setting [15]; 105 % of control under setting [16]; 105 % of control (dose: 100.0 mg/kg/injection, schedule: Q01DX009 (ip), vehicle: suspension in saline).

For the origin of these results see PubChem BioAssay AID330 (DTP/NCI, 2004).
